Measurements as given in patent US20250188085A1, “COMPOSITIONS AND METHODS FOR INHIBITION OF RAS” (THERAS, INC., priority 2022, published 2025).
Like-named read-outs stand apart in the source and are kept apart here.

Tests used:
[1] = biological target: T1, GDP-loaded KRAS4b (amino acids 1-169) G12C/C118S protein (Homo sapiens, UniProt P01116, C118S/G12C); experiment: Covalent cysteine 12 modification by MALDI-TOF MS, GDP-loaded KRAS G12C; assay type: binding; conditions: 15 minutes reaction time point
T1 construct: KRAS4b (amino acids 1-169) G12C/C118S protein; made in house
Procedure, shortened: (§1)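 KRAS4b 1-169 G12C/C118S loaded with GDP, GppNHp or GTP was used at 1 μM in 20 mM HEPES, 150 mM NaCl, 1 mM MgCl2, pH 7.3, and incubated with compound (5 mM DMSO stock) at room temperature in the dark. % modification at 15 min is adduct peak height over total protein peak heights by linear-mode MALDI-TOF.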

pERK in NCI-H358 cells = experiment: Cell-based pERK HTRF assay; conditions: 30 min incubation, read-out: pERK in NCI-H358 cell inhibition IC50
Procedure, shortened: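 Cells seeded at 4×10^4/well in RPMI with 10% FBS, then next day treated for 30 min with a 9-point, 3-fold series from 75 μM top concentration at 0.25% DMSO. Lysates were read for pERK by HTRF (d2/Eu cryptate antibodies) after 4–24 h at room temperature, emission at 615 nm.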

[2] = biological target: T2, GTP-loaded KRAS4b (amino acids 1-169) G12C/C118S protein (Homo sapiens, UniProt P01116, C118S/G12C); experiment: Covalent cysteine 12 modification by MALDI-TOF MS, GTP-loaded KRAS G12C; assay type: binding; conditions: 15 minutes reaction time point
T2 construct: KRAS4b (amino acids 1-169) G12C/C118S protein; made in house
Procedure, shortened: as §1

[3] = biological target: T3, GppNHp-loaded KRAS4b (amino acids 1-169) G12C/C118S protein (Homo sapiens, UniProt P01116, C118S/G12C); experiment: Covalent cysteine 12 modification by MALDI-TOF MS, GppNHp-loaded KRAS G12C; assay type: binding; conditions: 15 minutes reaction time point
T3 construct: KRAS4b (amino acids 1-169) G12C/C118S protein; made in house
Procedure, shortened: as §1

[4] = biological target: T4, Avi-KRAS G12C (1-169) GppNHp/RAF1 RBD-3×FLAG (52-151) (Homo sapiens, UniProt P01116, G12C); experiment: Raf1 RBD-KRAS G12C-GppNHp disruption (protein:protein interaction HTRF assay); assay type: biochemical
T4 construct: Avi-KRAS G12C (1-169) GppNHp/RAF1 RBD-3×FLAG (52-151)
Procedure, shortened: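 HTRF measuring disruption of 50 nM Avi-KRAS G12C (1-169) loaded with GppNHp binding RAF1 RBD-3×FLAG (52-151), in pH 7.5 Tris buffer with 5 mM MgCl2, 0.1% BSA, 10% DMSO. KRAS preincubated with compound 1 h, then RBD 1 h, then detection reagents 1 h, all at room temperature. Compound titration 30-0.02 μM; activity expressed as percent of DMSO control.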

| Structure (SMILES) | GDP-KRAS G12C percent of modification [1] | IC50 (pERK in NCI-H358 cells; Homo sapiens, NCI-H358, 0.5 h) [nM] | GTP-KRAS G12C percent of modification [2] | GppNHp-KRAS G12C percent of modification [3] | IC50 [4] [nM] | IC50 (pERK in NCI-H358 cells) [nM] |
| --- | --- | --- | --- | --- | --- | --- |
| C=CC(=O)N1CC[C@@H](Oc2nc(OC[C@@]34CCCN3C[C@H](F)C4)nc3c(F)c(-c4ccc(F)c5sc(N)c(C#N)c45)ncc23)[C@H]1C [Compound 73, 4-(4-(((2R,3R)-1-acryloyl-2-methylpyrrolidin-3-yl)oxy)-8-fluoro-2-(((2R,7aS)-2-fluorotetrahydro-1H-pyrrolizin-7a (5H)-yl)methoxy)pyrido[4,3-d]pyrimidin-7-yl)-2-amino-7-fluorobenzo[b]thiophene-3-carbonitrile] | A (percent of modification ≥70%) | ≤ 100 | A (percent of modification ≥70%) | A (percent of modification ≥70%) | ≤ 500 | – |
| C=CC(=O)N1C[C@H](Oc2nc(OC[C@@]34CCCN3C[C@H](F)C4)nc3c(F)c(-c4ccc(F)c5sc(N)c(C#N)c45)ncc23)[C@@H](F)C1 [Compound 75] | A (percent of modification ≥70%) | ≤ 100 | A (percent of modification ≥70%) | A (percent of modification ≥70%) | ≤ 500 | – |
| C=CC(=O)N1CC[C@@H](Oc2nc(OC[C@@]34CCCN3C[C@H](F)C4)nc3c(F)c(-c4ccc(F)c5sc(N)c(C#N)c45)ccc23)[C@H]1C [Compound 76, 4-(4-(((2R,3R)-1-acryloyl-2-methylpyrrolidin-3-yl)oxy)-8-fluoro-2-(((2R,7aS)-2-fluorotetrahydro-1H-pyrrolizin-7a (5H)-yl)methoxy)quinazolin-7-yl)-2-amino-7-fluorobenzo[b]thiophene-3-carbonitrile] | A (percent of modification ≥70%) | ≤ 100 | A (percent of modification ≥70%) | A (percent of modification ≥70%) | ≤ 500 | – |
| C=CC(=O)N1C[C@H](Oc2nc(OC[C@@]34CCCN3C[C@H](F)C4)nc3c(F)c(-c4ccc(F)c5sc(N)c(C#N)c45)ccc23)[C@@H](F)C1 [Compound 77] | A (percent of modification ≥70%) | ≤ 100 | A (percent of modification ≥70%) | A (percent of modification ≥70%) | ≤ 500 | – |
| C=CC(=O)N1CCC(Oc2nc(N3CC(N4CC5(CC5)C4)C3)nc3c(F)c(-c4ccc(F)c5sc(N)c(C#N)c45)c(C(F)(F)F)cc23)C1 (centres unmarked) [Compound 78] | C (10%≤modification <50%) | ≤ 100 | D (percent of modification <10%) | C (10%≤modification <50%) | ≤ 500 | – |
| C=CC(=O)N1C[C@@H](F)[C@@H](Oc2nc(OC[C@@]34CCCN3C[C@H](F)C4)nc3c(F)c(-c4ccc(F)c5sc(N)c(C#N)c45)ccc23)C1 [Compound 80] | A (percent of modification ≥70%) | ≤ 100 | A (percent of modification ≥70%) | A (percent of modification ≥70%) | ≤ 500 | – |
| C=CC(=O)N1C[C@@H](F)[C@@H](Oc2nc(OC[C@@]34CCCN3C[C@H](F)C4)nc3c(F)c(-c4ccc(F)c5sc(N)nc45)ccc23)C1 [Compound 82] | A (percent of modification ≥70%) | ≤ 100 | C (10%≤modification <50%) | B (50≤percent of modification <70%) | ≤ 500 | – |
| C=CC(=O)N1C[C@H](Oc2nc(OC[C@@]34CCCN3C[C@H](F)C4)nc3cc(-c4ccc(F)c5sc(N)c(C#N)c45)c(C(F)(F)F)nc23)C[C@H]1C [Compound 83] | A (percent of modification ≥70%) | ≤ 100 | C (10%≤modification <50%) | B (50≤percent of modification <70%) | ≤ 500 | – |
| C=CC(=O)N1C[C@H](Oc2nc(OC[C@@]34CCCN3C[C@H](F)C4)nc3cc(-c4ccc(F)c5sc(N)c(C#N)c45)c(C(F)(F)F)nc23)C[C@H]1C [Compound 84] | C (10%≤modification <50%) | – | C (10%≤modification <50%) | C (10%≤modification <50%) | ≤ 500 | ≤ 100 |
| C=CC(=O)N1CC[C@@H](Oc2nc(N3CC(N4CC5(CC5)C4)C3)nc3c(F)c(-c4ccc(F)c5sc(N)c(C#N)c45)ncc23)C1 [Compound 87] | A (percent of modification ≥70%) | 100 to 1000 | D (percent of modification <10%) | C (10%≤modification <50%) | 500 to 5000 | – |
| C=CC(=O)N1CC[C@@H](Oc2nc(OC[C@@]34CCCN3C[C@H](F)C4)nc3c(F)c(-c4ccc(F)c5sc(N)nc45)ccc23)[C@H]1C [Compound 88] | C (10%≤modification <50%) | 100 to 1000 | C (10%≤modification <50%) | C (10%≤modification <50%) | ≤ 500 | – |
| C=CC(=O)N1CC[C@@H](Oc2nc(OC[C@@]34CCCN3C[C@H](F)C4)nc3cc(-c4ccc(F)c5sc(N)c(C#N)c45)c(C(F)(F)F)nc23)[C@H]1C [Compound 91] | A (percent of modification ≥70%) | ≤ 100 | C (10%≤modification <50%) | B (50≤percent of modification <70%) | ≤ 500 | – |
| C=CC(=O)N1C[C@@H](F)[C@@H](Oc2nc(OC[C@@]34CCCN3C[C@H](F)C4)nc3c(F)c(-c4ccc(F)c5sc(N)c(C#N)c45)c(Cl)cc23)C1 [Compound 93] | A (percent of modification ≥70%) | ≤ 100 | B (50≤percent of modification <70%) | A (percent of modification ≥70%) | ≤ 500 | – |
| C=CC(=O)N1CC[C@@H](Oc2nc(OC[C@@]34CCCN3C[C@H](F)C4)nc3c(F)c(-c4ccc(F)c5sc(N)c(C#N)c45)c(Cl)cc23)[C@H]1C [Compound 94] | A (percent of modification ≥70%) | ≤ 100 | B (50≤percent of modification <70%) | A (percent of modification ≥70%) | ≤ 500 | – |
| C=CC(=O)N1CC[C@@H](Oc2nc(OC[C@@]34CCCN3C[C@H](F)C4)nc3c(F)c(-c4ccc(F)c5sc(N)c(C#N)c45)ccc23)[C@H]1COC [Compound 97] | A (percent of modification ≥70%) | ≤ 100 | A (percent of modification ≥70%) | A (percent of modification ≥70%) | ≤ 500 | – |
| C=CC(=O)N1CC[C@@H](Oc2nc(OC[C@@]34CCCN3C[C@H](F)C4)nc3cc(-c4ccc(F)c5sc(N)c(C#N)c45)c(C(F)(F)F)cc23)[C@H]1C [Compound 98] | B (50≤percent of modification <70%) | 100 to 1000 | C (10%≤modification <50%) | B (50≤percent of modification <70%) | ≤ 500 | – |
